Measured values as given in patent US10562898B2, “Substituted benzenesulfonamides as inhibitors of alpha-4 beta-7 integrin activity” (EA PHARMA CO., LTD., priority 2016, dated 2020).

biological target: T1, α4β7 integrin (Homo sapiens, UniProt P13612+P26010); assay: MAdCAM-1/α4β7 integrin binding inhibitory activity evaluation test in presence of serum; assay type: cell-based; settings: RPMI-8866 cells, recombinant mouse MAdCAM-1/Fc, 50% human serum; read-out: α4β7 Serum Added IC50
T1 construct: a cell line RPMI-8866, which is known to express α4β7 integrin; endogenous in cells; host or cells: RPMI-8866 (human B cell line)
T1 sequence (P13612 34-1032): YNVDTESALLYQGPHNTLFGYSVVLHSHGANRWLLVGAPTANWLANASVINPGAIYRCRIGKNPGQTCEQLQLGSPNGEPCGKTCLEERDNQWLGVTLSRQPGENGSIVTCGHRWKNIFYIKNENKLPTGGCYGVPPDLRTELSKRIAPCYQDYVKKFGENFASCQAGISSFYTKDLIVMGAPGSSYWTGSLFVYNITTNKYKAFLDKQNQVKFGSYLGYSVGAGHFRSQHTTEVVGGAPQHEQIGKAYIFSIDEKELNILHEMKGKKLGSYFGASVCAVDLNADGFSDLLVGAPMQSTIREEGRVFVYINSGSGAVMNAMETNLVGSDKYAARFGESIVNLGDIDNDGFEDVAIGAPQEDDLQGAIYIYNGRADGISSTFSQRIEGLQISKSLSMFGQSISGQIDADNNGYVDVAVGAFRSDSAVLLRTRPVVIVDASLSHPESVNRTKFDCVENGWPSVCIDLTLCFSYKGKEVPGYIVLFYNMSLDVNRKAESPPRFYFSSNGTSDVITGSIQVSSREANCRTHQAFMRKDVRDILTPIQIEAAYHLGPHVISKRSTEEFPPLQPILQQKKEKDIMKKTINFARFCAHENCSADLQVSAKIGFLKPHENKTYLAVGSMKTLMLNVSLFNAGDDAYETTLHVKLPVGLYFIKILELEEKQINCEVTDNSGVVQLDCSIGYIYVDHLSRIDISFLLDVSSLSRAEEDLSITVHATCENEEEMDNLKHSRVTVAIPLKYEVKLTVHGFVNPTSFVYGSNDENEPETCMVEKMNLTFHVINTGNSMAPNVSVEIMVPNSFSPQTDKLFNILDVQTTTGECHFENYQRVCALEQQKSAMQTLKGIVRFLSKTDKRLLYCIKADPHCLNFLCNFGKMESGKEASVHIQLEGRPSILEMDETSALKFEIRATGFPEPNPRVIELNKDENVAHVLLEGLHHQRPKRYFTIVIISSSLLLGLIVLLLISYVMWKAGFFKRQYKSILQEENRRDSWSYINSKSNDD
T1 sequence (P26010 20-798): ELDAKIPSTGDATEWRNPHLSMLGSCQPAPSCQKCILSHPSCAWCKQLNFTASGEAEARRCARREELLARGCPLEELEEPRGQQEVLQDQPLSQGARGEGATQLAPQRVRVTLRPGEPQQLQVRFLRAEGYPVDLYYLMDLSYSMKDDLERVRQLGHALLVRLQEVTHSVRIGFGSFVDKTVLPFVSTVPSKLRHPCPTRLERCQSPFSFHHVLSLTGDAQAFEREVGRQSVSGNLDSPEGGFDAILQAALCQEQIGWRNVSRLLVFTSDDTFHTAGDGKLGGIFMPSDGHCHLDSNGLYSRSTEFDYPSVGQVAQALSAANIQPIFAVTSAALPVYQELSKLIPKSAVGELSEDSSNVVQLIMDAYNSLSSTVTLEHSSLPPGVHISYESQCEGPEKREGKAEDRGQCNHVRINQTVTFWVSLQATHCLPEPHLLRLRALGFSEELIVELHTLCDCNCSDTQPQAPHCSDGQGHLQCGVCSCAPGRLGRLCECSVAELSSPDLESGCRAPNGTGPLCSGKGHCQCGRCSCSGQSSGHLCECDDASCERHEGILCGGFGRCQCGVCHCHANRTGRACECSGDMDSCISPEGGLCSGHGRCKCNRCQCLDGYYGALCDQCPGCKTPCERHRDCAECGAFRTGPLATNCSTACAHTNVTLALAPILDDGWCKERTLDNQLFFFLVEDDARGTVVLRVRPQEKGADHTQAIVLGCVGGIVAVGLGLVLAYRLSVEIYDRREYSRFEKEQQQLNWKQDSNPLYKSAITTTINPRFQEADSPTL
Experimental: (3) MAdCAM-1/α4β7 Integrin Binding Inhibitory Activity Evaluation Test in Presence of Serum (1)
Each test substance was measured in terms of an ability to inhibit the MAdCAM-1 binding of a human B cell line, namely, a cell line RPMI-8866, which is known to express α4β7 integrin.
A solution of recombinant mouse MAdCAM-1/Fc (R&D Systems, Inc.) (1 μg/mL) diluted with a buffer A (carbonate buffer, pH 9.6) was added in an amount of 50 μL/well to a 96-well microtiter plate, followed by incubation at 4° C. overnight. After the plate was washed with PBS once, 150 μL/well of Block Ace (Snow Brand Milk Products Co., Ltd.) was added, followed by incubation at room temperature for 2 hours. After removal, the plate was washed with PBS once.
Then, 100 μL of the RPMI-8866 cells (2×10^6 cells/mL) and 100 of the test substance at each of various concentrations diluted with a binding buffer (DMEM containing 40 mM HEPES, 0.2% BSA, and 4 mM MnCl2) were added to the plate coated with the MAdCAM-1/Fc (5×10^5 cells/well) such that 50% human serum was contained at the final concentration. Then, incubation was allowed to proceed at 30° C. for 15 to 60 minutes. After the cells were bound to the wells, the plate was washed with PBS to remove unbound cells. A buffer C (PBS containing 1.5% Triton X-100) was added in an amount 50 μL/well to the plate to lyse the bound RPMI-8866 cells. After 30 μL of a substrate buffer (Promega, CytoTox 96 Non-Radioactive Cytotoxicity Assay) was added to 30 μL of the cell lysate, a reaction was allowed to proceed at room temperature in the dark for 30 minutes. After 30 μL of a stop solution (Promega, CytoTox 96 Non-Radioactive Cytotoxicity Assay) was added to each, and then an absorbance at 490 nm was measured using a plate reader. The absorbance obtained here represents a detection result of an activity of lactate dehydrogenase (LDH) eluted in the supernatant of each well, that is, the absorbance is proportional to the number of RPMI-8866 cells bound to the MAdCAM-1 and thus remaining on the plate. The test was performed in duplicate. Provided that the absorbance of the well containing no test substance was 100%, a cell binding rate with the test substance at each of the various concentrations was figured out, and a concentration IC50 which brought about 50% binding inhibition was calculated.

SMILES | IC50
Cc1c(C)n(C)c(=O)n(-c2ccc(C[C@H](NC(=O)c3cc(F)c(NS(=O)(=O)c4ccc(NC(=O)C5CCOCC5)cc4)cc3F)C(=O)O)cc2)c1=O [Compound A15] | 0.014 µM
Cn1cnc2c1c(=O)n(-c1ccc(C[C@H](NC(=O)c3cc(F)c(NS(=O)(=O)c4ccc(NC(=O)C(C)(C)C)cc4)cc3F)C(=O)O)cc1)c(=O)n2C [Compound A43] | 0.0058 µM
Cc1cn(C)c(=O)n(-c2ccc(C[C@H](NC(=O)c3cc(F)c(NS(=O)(=O)c4ccc(NC(=O)C#CC(C)(C)C)cc4)cc3F)C(=O)O)cn2)c1=O [Compound A68] | 0.033 µM
Cc1cc(=O)n(-c2ccc(C[C@H](NC(=O)c3cc(F)c(NS(=O)(=O)c4ccc(NC(=O)C(C)(C)C)cc4)cc3F)C(=O)O)cn2)c(=O)n1C [Compound A45] | 0.0084 µM
Cn1c(=O)n(-c2ccc(C[C@H](NC(=O)c3cc(F)c(NS(=O)(=O)c4ccc(NC(=O)C5(c6ccccc6)CC5)cc4)cc3F)C(=O)O)cn2)c(=O)c2ccncc21 [Compound A29] | 0.054 µM
Cn1ccc(=O)n(-c2ccc(C[C@H](NC(=O)c3cc(F)c(NS(=O)(=O)c4ccc(NC(=O)C(C)(C)C)cc4)cc3F)C(=O)O)cn2)c1=O [Compound A53] | 0.011 µM
Cn1ccc(=O)n(-c2ccc(C[C@H](NC(=O)c3cc(F)c(NS(=O)(=O)c4ccc(NC(=O)C5(C(F)(F)F)CC5)cc4)cc3F)C(=O)O)cn2)c1=O [Compound A55] | 0.033 µM
Cn1c2c(c(=O)n(-c3ccc(C[C@H](NC(=O)c4cc(F)c(NS(=O)(=O)c5ccc(NC(=O)C(C)(C)C)cc5)cc4F)C(=O)O)cn3)c1=O)CCCC2 [Compound A52] | 0.0049 µM
Cc1cn(C)c(=O)n(-c2ccc(C[C@H](NC(=O)c3cc(F)c(NS(=O)(=O)c4ccc(NC(=O)C(C)(C)CO)cc4)cc3F)C(=O)O)cn2)c1=O [Compound A63] | 0.012 µM
Cc1c(CO)c(=O)n(-c2ccc(C[C@H](NC(=O)c3cc(F)c(NS(=O)(=O)c4ccc(NC(=O)C(C)(C)C)cc4)cc3F)C(=O)O)cc2)c(=O)n1C [Compound A51] | 0.013 µM
Cn1c2c(c(=O)n(-c3ccc(C[C@H](NC(=O)c4cc(F)c(NS(=O)(=O)c5ccc(NC(=O)C(C)(C)C)cc5)cc4F)C(=O)O)cn3)c1=O)COCC2 [Compound A44] | 0.0026 µM
Cn1c(=O)n(-c2ccc(C[C@H](NC(=O)c3cc(F)c(NS(=O)(=O)c4ccc(NC(=O)c5ccncc5)cc4)cc3F)C(=O)O)cc2)c(=O)c2ccncc21 [Compound A7] | 0.028 µM
CCC(CC)C(=O)Nc1ccc(S(=O)(=O)Nc2cc(F)c(C(=O)N[C@@H](Cc3ccc(-n4c(=O)c(C)c(C)n(C)c4=O)cc3)C(=O)O)cc2F)cc1 [Compound A4] | 0.016 µM
Cc1cn(C)c(=O)n(-c2ccc(C[C@H](NC(=O)c3cc(F)c(NS(=O)(=O)c4cc5cc(NC(=O)C(C)(C)C)ccc5[nH]4)cc3F)C(=O)O)cn2)c1=O [Compound A76] | 0.014 µM
Cn1c(=O)n(-c2ccc(C[C@H](NC(=O)c3cc(F)c(NS(=O)(=O)c4ccc(NC(=O)C(C)(C)CO)cc4)cc3F)C(=O)O)cc2)c(=O)c2ccncc21 [Compound A18] | 0.009 µM
Cn1c(=O)n(-c2ccc(C[C@H](NC(=O)c3cc(F)c(NS(=O)(=O)c4ccc(NC(=O)C5CCNCC5)cc4)cc3F)C(=O)O)cc2)c(=O)c2ccncc21 [Compound A6, (2S)-2-[[2,5-difluoro-4-[[4-(piperidine-4-carbonylamino)phenyl]sulfonylamino]benzoyl]amino]-3-[4-(1-methyl-2,4-dioxo-pyrido[3,4-d]pyrimidin-3-yl)phenyl]propanoic acid] | 0.014 µM
Cc1cc(=O)n(-c2ccc(C[C@H](NC(=O)c3cc(F)c(NS(=O)(=O)c4ccc(NC(=O)C(C)(C)C)cc4)cc3F)C(=O)O)nc2)c(=O)n1C [Compound A72] | 0.028 µM
Cc1c(C)n(C(C)C)c(=O)n(-c2ccc(C[C@H](NC(=O)c3cc(F)c(NS(=O)(=O)c4ccc(NC(=O)C(C)(C)C)cc4)cc3F)C(=O)O)cc2)c1=O [Compound A48] | 0.022 µM
Cn1c(=O)n(-c2ccc(C[C@H](NC(=O)c3cc(F)c(NS(=O)(=O)c4ccc(NC(=O)C5CCOCC5)cc4)cc3F)C(=O)O)cc2)c(=O)c2ccncc21 [Compound A14] | 0.012 µM
Cn1c2c(c(=O)n(-c3ccc(C[C@H](NC(=O)c4cc(F)c(NS(=O)(=O)c5ccc(NC(=O)C(C)(C)C)cc5)cc4F)C(=O)O)cc3)c1=O)COCC2 [Compound A33] | 0.0017 µM
CN1CCc2c(n(C)c(=O)n(-c3ccc(C[C@H](NC(=O)c4cc(F)c(NS(=O)(=O)c5ccc(NC(=O)C(C)(C)C)cc5)cc4F)C(=O)O)cc3)c2=O)C1 [Compound A41] | 0.0019 µM
Cc1cn(C)c(=O)n(-c2ccc(C[C@H](NC(=O)c3cc(F)c(NS(=O)(=O)c4ccc(NC(=O)C(C)(C)C)s4)cc3F)C(=O)O)cn2)c1=O [Compound A73] | 0.037 µM
Cc1c(C)n(C)c(=O)n(-c2ccc(C[C@H](NC(=O)c3cc(F)c(NS(=O)(=O)c4ccc(-n5ccc(C6CCOCC6)cc5=O)cc4)cc3F)C(=O)O)cc2)c1=O [Compound A34] | 0.024 µM
Cc1c(C)n(C)c(=O)n(-c2ccc(C[C@H](NC(=O)c3cc(F)c(NS(=O)(=O)c4cccc(NC(=O)C(C)(C)C)c4)cc3F)C(=O)O)cn2)c1=O [Compound A50] | 0.063 µM
COc1cc2c(=O)n(-c3ccc(C[C@H](NC(=O)c4cc(F)c(NS(=O)(=O)c5ccc(NC(=O)C(C)(C)C)cc5)cc4F)C(=O)O)cc3)c(=O)n(C)c2cn1 [Compound A36] | 0.018 µM
Cn1ccc(=O)n(-c2ccc(C[C@H](NC(=O)c3cc(F)c(NS(=O)(=O)c4ccc(NC(=O)C5CCCC5)cc4)cc3F)C(=O)O)cn2)c1=O [Compound A64] | 0.089 µM
Cn1c2c(c(=O)n(-c3ccc(C[C@H](NC(=O)c4cc(F)c(NS(=O)(=O)c5ccc(NC(=O)C(C)(C)C)cc5)cc4F)C(=O)O)cn3)c1=O)CCOC2 [Compound A40] | 0.0043 µM
